Reference: patent publication US20250163484A1, “Methods for Incorporating Azido Groups in Bacterial Capsular Polysaccharides” (PFIZER INC., priority 2022, published 2025)

Key:
S. pneumoniae T14 [1] = format: cell-based, Streptococcus pneumoniae serotype 14; conditions: production medium + Galactose (30 g/L)
Method: (§1) FIGS. 1A-1D. Screen for azido sugar incorporation into S. pneumoniae T14 capsule polysaccharide. […] Bacteria were grown until the ΔOD600≥0 for >30 minutes, then lysed with 0.1% NLS for 30 minutes. Growth was measured offline using a spectrophotometer blanked with PBS at 600 nm. (FIG. 1A) azido incorporation into polysaccharide was then quantified via fluorescent labeling (FL) with normalization to refractive index (RI). MaxOD and End Of Fermentation time (EOF) are provided in (FIG. 1B) and (FIG. 1C), respectively. Polysaccharide was extracted using EtOH and CaCl2 and analyzed via SEC-RI for (FIG. 1D) polysaccharide titer. n=1-4, error bars=+/−StDev.
FIGS. 2A-2D Impact of 2AzGlcAc4 concentration on S. pneumoniae T14 growth and poly production in production medium supplemented with Galactose (30 g/L). […] (FIG. 2A) Growth was measured offline using a spectrophotometer blanked with PBS at 600 nm. At the end of fermentation, cultures were lysed with 0.1% NLS for 30 min. and polysaccharide was extracted via EtOH/CaCl2) precipitation. Polysaccharide titer (FIG. 2B) and size (FIG. 2C) were measured via SEC-RI and SEC-MALS, respectively. (FIG. 2D) azido incorporation was then quantified via fluorescent labeling (FL) and normalized to the refractive index (RI). n=3, error bars=+/−StDev.
FIGS. 3A-3E Impact of 2AzGlc concentration on S. pneumoniae T14 growth and polysaccharide production in production medium supplemented with Galactose (30 g/L). […] (FIG. 3A) Growth was measured offline using a spectrophotometer blanked with PBS at 600 nm. Cultures were lysed with 0.1% NLS for 30 min. and polysaccharide was extracted via EtOH/CaCl2) precipitation. Polysaccharide (FIG. 3B/FIG. 3C) titer and (FIG. 3D) size were measured via SEC-RI and SEC-MALS, respectively. (FIG. 3E) azido incorporation was then quantified via fluorescent labeling (FL) and normalized to the refractive index (RI). n=3, error bars=+/−StDev.
We tested the impact of 2AzGlc concentration on S. pneumoniae T14 growth, polysaccharide production, and azido incorporation by growing the bacteria in production media (supplemented with Glucose (dextrose, 30 g/L)) with various concentrations of 2AzGlc (0, 1, 5, 10, 20, 40, and 60 mM).

[2] = test system: S. pneumoniae T14 capsule polysaccharide; format: cell-based, Streptococcus pneumoniae serotype 14; conditions: 2AzGlcAc4 2.5-10 mM, production medium + Galactose (30 g/L), DMSO 2%
Method: as §1
A SEC fluorescence and Refractive index assay (SEC-FL/RI) was used for azide measurement to confirm the incorporation of azide modification.
Click-It Cell Reaction Buffer kit and Alexa Fluor 488 Alkyne were purchased from Invitrogen.
The initial procedure when running the SEC-FL/RI was to prepare the sample to a target concentration of 0.01 mg/m by mixing a pre-diluted polysaccharide to the final target concentration with the Click Reaction mixture. The reaction mixture consisted of 2.67 mM CuSO4, 2.67 mg/mL cell additive reagent, and 20 uM Alexa Fluor Alkyne. This was mixed with the sample at a 3:1 ratio of reaction mixture to sample and incubated in the absence of light. Reactions were transferred to HPLC vials and ran on the SEC-FL/RI HPLC setup. The RI detector (RID) allowed for detection of the polysaccharide while the Fluorescence Detector (FLD) was used to determine the level of fluor incorporated into the polysaccharide sample. The ratio of the two peak areas gave a measurement for the amount of azide incorporated to the polysaccharide.
Later, in addition to the incubation of the sample for thirty minutes, a buffer exchange step was added that washed out the unreacted fluor as well as the reaction matrix reagents in order to improve the baselines of the FLD and RID during the HPLC run. This added greater resolution of the peak associated with the azide functionalized polysaccharide. The assay was useful for relative quantitation of azide incorporation into the polysaccharide but could not quantify an exact numerical concentration. To improve this aspect work was undertaken to use a polysaccharide with known levels of azido functionalization to make a standard curve that varied the % Azido while keeping the polysaccharide mass the same. This was done by mixing the known azido modified poly (polysaccharide) with specific amounts of native (unmodified) polysaccharide. A strong linear fit for the generated standard curve was seen.
The values for percent azide were able to be converted to a μM azide per mM polysaccharide by converting from % azide using the constant polysaccharide concentration.

[3] = Solubility of azido sugar in production medium; format: physicochemical; conditions: production medium supplemented with galactose (30 g/L), aqueous buffer; read-out: limit of solubility
S. pneumoniae T14 [4] = assay: Growth of S. pneumoniae T14 in fermentation with azido sugar (OD600); format: cell-based, Streptococcus pneumoniae serotype 14

Question: What does the source list for `CC(=O)OC[C@H]1OC(OC(C)=O)[C@H](N=[N+]=[N-])[C@@H](OC(C)=O)[C@@H]1OC(C)=O` (stereo partly drawn) [2AzGlcAc4, 1,3,4,6-Tetra-O-acetyl-2-azido-2-deoxy-D-glucopyranose]?
Answer: polysaccharide titer (S. pneumoniae T14 [1]; 2AzGlcAc4 2.5, 5, 10 mM (not 7.5 mM), DMSO 2%): statistically significant reduction; FL/RI with increasing concentrations [2]: did not cause an increase; solubility [3]: ≤ 1000 µM; impact on growth (S. pneumoniae T14 [4]; 2AzGlcAc4 2.5, 5, 7.5, 10 mM, production medium + Galactose (30 g/L), DMSO 2%): no impact

Question: For `[N-]=[N+]=N[C@H]1[C@H](O)[C@@H](CO)OC(O)[C@@H]1O` (stereo partly drawn) [3AzGlc, 3-azido-3-deoxy-D-glucopyranose], which “End Of Fermentation (EOF) time” value (S. pneumoniae T14 [4]; screen, azido sugar 1 mM, only in production medium + Galactose) is on record?
Answer: elongated

Question: Which results are given for `CC(=O)OC[C@H]1OC(O)[C@H](N=[N+]=[N-])[C@@H](OC(C)=O)[C@@H]1O` (stereo partly drawn) [2AzGlcAc2, 3,6-Di-O-acetyl-2-azido-2-deoxy-D-glucopyranose]?
Answer: polysaccharide production (S. pneumoniae T14 [1]; azido sugar 20 mM without DMSO): strongly inhibited; growth (S. pneumoniae T14 [4]; azido sugar 20 mM without DMSO, production medium + Galactose (30 g/L)): strongly inhibited
